Values after ≈ are worked out from the molar mass of the structure shown.
Legend:
Staph.aureus 6538P = experiment: Minimum Inhibitory Concentration (MIC), broth dilution method; format: cell-based; conditions: Staphylococcus aureus, inoculum size 10^6 /ml
Staph.aureus MS353 = experiment: as above; format: cell-based; conditions: Staphylococcus aureus, inoculum size 10^6 /ml
Source text: (§1) Minimum Inhibitory Concentration (MIC) μg/ml
(§2) clinical isolates (macrolide resistant Agroup strains) inoculum size
(§3) 10^6 /ml, broth dilution method.

Strept.faecalis 1501 = experiment: as above; format: cell-based; conditions: for MIC: Enterococcus faecalis, 1501, Strept.faecalis 1501, inoculum size 10^6 /ml
Staph. aureus 0116 = experiment: as above; format: cell-based; conditions: inoculum size 10^6 /ml; for MIC: Staphylococcus aureus, 0116, Staph. aureus 0116, macrolide resistant clinical isolate (A group)
Source text: as §1
(§4) *Erythromycin, oleandomycin, 16membered macrolide resistant strains of
as §2, §3

Staph.aureus 0119 = experiment: as above; format: cell-based; conditions: inoculum size 10^6 /ml; for MIC: Staphylococcus aureus, 0119, Staph.aureus 0119, macrolide resistant clinical isolate (A group)
Source text: as §1, §4, §2, §3

Staph.aureus MS 353AO = experiment: as above; format: cell-based; conditions: macrolide resistant clinical isolate (A group), inoculum size 10^6 /ml; for MIC: Staphylococcus aureus, MS353AO
Source text: as §1, §4, §2, §3

Strept.pyogenes 1022 = experiment: as above; format: cell-based; conditions: inoculum size 10^6 /ml; for MIC: Streptococcus pyogenes, 1022, Strept.pyogenes 1022, macrolide resistant clinical isolate (A group)
Source text: as §1, §4, §2, §3

[1] = Potency as compared with standard leucomycin
Staph.aureus MS353 C36 = experiment: Minimum Inhibitory Concentration (MIC), broth dilution method; format: cell-based; conditions: Staphylococcus aureus, MS353C36, Staph.aureus MS353 C36, inoculum size 10^6 /ml
Source text: as §1, §2, §3

Q: What does the source list for `CCCC(=O)OC1C(C)OC(OC2C(C)OC(OC3C(CC=O)CC(C)C(O)C=CC=CCC(C)OC(=O)CC(O)C3OC)C(O)C2N(C)C)CC1(C)OC(C)=O` (stereo not shown) [3"-acetyl LM-A5, 3"-acetyl leucomycin A5]?
A: MIC (Staph.aureus 6538P): 1.6 µg/mL (≈ 1.97 µM); MIC (Staph.aureus MS353): 1.6 µg/mL (≈ 1.97 µM); MIC (Strept.faecalis 1501): 0.8 µg/mL (≈ 0.983 µM); Minimum Inhibitory Concentration (MIC) (Strept.faecalis 1501; Strept.faecalis 1501, inoculum size 10^6 /ml): 1.6 µg/mL; Minimum Inhibitory Concentration (MIC) (Staph. aureus 0116; Staph. aureus 0116, macrolide resistant clinical isolate (A group)): 12.5 µg/mL; MIC (Staph. aureus 0116): 6.3 µg/mL (≈ 7.74 µM); Minimum Inhibitory Concentration (MIC) (Staph.aureus 0119; Staph.aureus 0119, macrolide resistant clinical isolate (A group)): > 100 µg/mL; MIC (Staph.aureus 0119): 100 µg/mL (≈ 123 µM); MIC (Staph.aureus MS 353AO): > 100 µg/mL; Minimum Inhibitory Concentration (MIC) (Staph.aureus MS 353AO): 100 µg/mL; Minimum Inhibitory Concentration (MIC) (Strept.pyogenes 1022; Strept.pyogenes 1022, macrolide resistant clinical isolate (A group)): 0.8 µg/mL; MIC (Strept.pyogenes 1022): 0.4 µg/mL (≈ 0.491 µM); Potency [1]: 2850 µg/mg

Q: Which MIC (Staph.aureus 6538P) does the source give for `CCCC(=O)OC1C(C)OC(OC2C(C)OC(OC3C(CC=O)CC(C)C(O)C=CC=CCC(C)OC(=O)CC(O)C3OC)C(O)C2N(C)C)CC1(C)OC(=O)CC` (stereo not shown) [3"-propionyl LM-A5, 3"-propionyl leucomycin A5] here?
A: 0.8 µg/mL (≈ 0.966 µM)

Q: And the MIC (Staph.aureus MS353 C36)?
A: 0.8 µg/mL (≈ 0.966 µM)

Q: What about the MIC (Staph.aureus MS353) of the same compound?
A: 1.6 µg/mL (≈ 1.93 µM)

Q: And the MIC (Strept.faecalis 1501)?
A: 0.8 µg/mL (≈ 0.966 µM)

Q: What about the MIC (Staph. aureus 0116) of the same compound?
A: 12.5 µg/mL (≈ 15.1 µM)

Q: And the MIC (Staph.aureus 0119)?
A: > 100 µg/mL

Q: And the MIC (Staph.aureus MS 353AO)?
A: > 100 µg/mL

Q: And the MIC (Strept.pyogenes 1022)?
A: 0.4 µg/mL (≈ 0.483 µM)

Q: What about the Potency [1] of the same compound?
A: 2850 µg/mg

Q: With `CCCC(=O)OC1C(C)OC(OC2C(C)OC(OC3C(CC=O)CC(C)C(O)C=CC=CCC(C)OC(=O)CC(O)C3OC)C(O)C2N(C)C)CC1(C)OC(=O)CCC` (stereo not shown) [3"butylyl LM-A5, 3"-butylyl leucomycin A5] as the compound, how does the MIC (Staph.aureus 6538P) read?
A: 0.8 µg/mL (≈ 0.95 µM)

Q: What about the MIC (Staph.aureus MS353 C36) of the same compound?
A: 0.4 µg/mL (≈ 0.475 µM)

Q: What about the MIC (Staph.aureus MS353) of the same compound?
A: 1.6 µg/mL (≈ 1.9 µM)

Q: And the MIC (Strept.faecalis 1501)?
A: 0.8 µg/mL (≈ 0.95 µM)

Q: And the MIC (Staph. aureus 0116)?
A: 50 µg/mL (≈ 59.4 µM)

Q: What about the MIC (Staph.aureus 0119) of the same compound?
A: 100 µg/mL (≈ 119 µM)

Q: What about the MIC (Staph.aureus MS 353AO) of the same compound?
A: > 100 µg/mL

Q: What about the MIC (Strept.pyogenes 1022) of the same compound?
A: 0.8 µg/mL (≈ 0.95 µM)

Q: With `CCCC(=O)OC1C(C)OC(OC2C(C)OC(OC3C(CC=O)CC(C)C(O)C=CC=CCC(C)OC(=O)CC(OC(C)=O)C3OC)C(O)C2N(C)C)CC1(C)OC(C)=O` (stereo not shown) [3,3"-diacetyl LM-A5, 3,3"-diacetylleucomycin A5] as the compound, how does the MIC (Staph.aureus 6538P) read?
A: 1.6 µg/mL (≈ 1.87 µM)

Q: And the MIC (Staph.aureus MS353 C36)?
A: 0.8 µg/mL (≈ 0.935 µM)

Q: And the MIC (Staph.aureus MS353)?
A: 1.6 µg/mL (≈ 1.87 µM)

Q: What about the MIC (Strept.faecalis 1501) of the same compound?
A: 1.6 µg/mL (≈ 1.87 µM)

Q: And the MIC (Staph. aureus 0116)?
A: 50 µg/mL (≈ 58.4 µM)

Q: And the MIC (Staph.aureus 0119)?
A: > 100 µg/mL

Q: What about the MIC (Staph.aureus MS 353AO) of the same compound?
A: > 100 µg/mL

Q: And the MIC (Strept.pyogenes 1022)?
A: 1.6 µg/mL (≈ 1.87 µM)

Q: For `CCCC(=O)OC1(C)CC(OC2C(C)OC(OC3C(CC=O)CC(C)C(O)C=CC=CCC(C)OC(=O)CC(O)C3OC)C(O)C2N(C)C)OC(C)C1OC(C)=O` (stereo not shown) [4"-acetyl-3"-butylyl LM-A5, 4"-acetyl-3"-butylyl leucomycin V], which MIC (Staph.aureus 6538P) is on record?
A: 1.6 µg/mL (≈ 1.97 µM)

Q: What about the MIC (Staph.aureus MS353 C36) of the same compound?
A: 0.8 µg/mL (≈ 0.983 µM)

Q: What about the MIC (Staph.aureus MS353) of the same compound?
A: 1.6 µg/mL (≈ 1.97 µM)

Q: And the MIC (Strept.faecalis 1501)?
A: 0.8 µg/mL (≈ 0.983 µM)

Q: What about the MIC (Staph. aureus 0116) of the same compound?
A: 50 µg/mL (≈ 61.4 µM)

Q: What about the MIC (Staph.aureus 0119) of the same compound?
A: > 100 µg/mL

Q: And the MIC (Staph.aureus MS 353AO)?
A: 25 µg/mL (≈ 30.7 µM)

Q: What about the MIC (Strept.pyogenes 1022) of the same compound?
A: 6.3 µg/mL (≈ 7.74 µM)

Q: With `CCCC(=O)OC1C(C)OC(OC2C(C)OC(OC3C(CC=O)CC(C)C(OC(C)=O)C=CC=CCC(C)OC(=O)CC(O)C3OC)C(O)C2N(C)C)CC1(C)OC(C)=O` (stereo not shown) [9,3"-diacetyl LM-A5, 9,3"-diacetyl leucomycin A5] as the compound, how does the MIC (Staph.aureus 6538P) read?
A: 0.8 µg/mL (≈ 0.935 µM)

Q: What about the MIC (Staph.aureus MS353 C36) of the same compound?
A: 0.8 µg/mL (≈ 0.935 µM)

Q: And the MIC (Staph.aureus MS353)?
A: 1.6 µg/mL (≈ 1.87 µM)

Q: What about the MIC (Strept.faecalis 1501) of the same compound?
A: 1.6 µg/mL (≈ 1.87 µM)

Q: And the MIC (Staph. aureus 0116)?
A: 12.5 µg/mL (≈ 14.6 µM)

Q: And the MIC (Staph.aureus 0119)?
A: 100 µg/mL (≈ 117 µM)

Q: What about the MIC (Staph.aureus MS 353AO) of the same compound?
A: > 100 µg/mL

Q: And the MIC (Strept.pyogenes 1022)?
A: 0.4 µg/mL (≈ 0.467 µM)

Q: Which MIC (Staph.aureus 6538P) does the source give for `COC1C(OC(C)=O)CC(=O)OC(C)CC=CC=CC(O)C(C)CC(CC=O)C1OC1OC(C)C(OC2CC(C)(O)C(OC(=O)CC(C)C)C(C)O2)C(N(C)C)C1O` (stereo not shown) [LM-A3, Leucomycin A3, reference compound] here?
A: 3.1 µg/mL (≈ 3.74 µM)

Q: What about the MIC (Staph.aureus MS353 C36) of the same compound?
A: 1.6 µg/mL (≈ 1.93 µM)

Q: And the MIC (Staph.aureus MS353)?
A: 3.1 µg/mL (≈ 3.74 µM)

Q: What about the MIC (Strept.faecalis 1501) of the same compound?
A: 3.1 µg/mL (≈ 3.74 µM)

Q: And the MIC (Staph. aureus 0116)?
A: > 100 µg/mL

Q: What about the MIC (Staph.aureus 0119) of the same compound?
A: > 100 µg/mL

Q: And the MIC (Staph.aureus MS 353AO)?
A: > 100 µg/mL

Q: What about the MIC (Strept.pyogenes 1022) of the same compound?
A: > 100 µg/mL

Q: What does the source list for `CCCC(=O)OC1C(C)OC(OC2C(C)OC(OC3C(CC=O)CC(C)C(O)C=CC=CCC(C)OC(=O)CC(O)C3OC)C(O)C2N(C)C)CC1(C)O` (stereo not shown) [LM-A5, Leucomycin A5, reference compound]?
A: MIC (Staph.aureus 6538P): 1.6 µg/mL (≈ 2.07 µM); MIC (Staph.aureus MS353 C36): 1.6 µg/mL (≈ 2.07 µM); MIC (Staph.aureus MS353): 1.6 µg/mL (≈ 2.07 µM); MIC (Strept.faecalis 1501): 1.6 µg/mL (≈ 2.07 µM); MIC (Staph. aureus 0116): > 100 µg/mL; MIC (Staph.aureus 0119): > 100 µg/mL; MIC (Staph.aureus MS 353AO): > 100 µg/mL; MIC (Strept.pyogenes 1022): > 100 µg/mL
